Results on six molecules are retold here after publication PMC2888578, “Conformational Determinants of Phosphotyrosine Peptides Complexed with the Src SH2 Domain” (PLoS ONE, 2010).

One assay deals with T1, Src SH2 domain (Homo sapiens, UniProt P12931).
T1 construct: 350 nM of GST-Src SH2 domain fusion protein
The assay can be described thus: fluorescence polarization (FP) competition binding assay against fluorescent probe EPQ(pY)EEIPIYL(K-Flc). To be noted: for IC50: concentration that reduces binding of fluorescein-labeled probe EPQ(pY)EEIPIYL(K-Flc) to the Src SH2 domain by 50%, 350 nM GST-Src SH2, 50 nM probe, 25°C, pH 7.3. As for the experimental part: The relative binding affinity of phosphopeptides to the Src SH2 domain was tested by competition against a fluorescent probe using a fluorescence polarization (FP) binding assay, [17], [18]. FP was measured at 25°C in a disposable glass tube, using a Beacon 2000 luminescence spectrometer equipped with an FP apparatus. The excitation and emission wavelengths were set at 485 and 535 nm, respectively. The fluorescent probe was the fluorescein (Flc)-labeled phosphopeptide EPQ(pY)EEIPIYL(K-Flc). For the competition assay, final concentrations of 350 nM of GST-Src SH2 domain fusion protein, 50 nM fluorescent probe, HEPES buffer (20 mM, pH 7.3, 100 mM NaCl, 2 mM DTT, 0.1% BSA) and various concentrations (0–100 µM) of each competitor peptide were used. A blank control (with the Src SH2 domain but without a peptide) and a background control (without both the Src SH2 domain and the peptide) were used. The inhibition percentage IP of fluorescent probe binding to the Src SH2 domain by the sample was calculated by the following equation: [drawing 1] where FP0 is the fluorescent polarization value of the blank control, FP is the fluorescent polarization value of the sample (peptide), and FPb is the fluorescent polarization value of the background control. The inhibition percentages of the various concentrations of the assayed peptides were plotted, and the IC50 value (the concentration that inhibits the binding of the fluorescent probe to the Src SH2 domain by 50%) was calculated.

A further assay deals with Src SH2. To be noted: cited from earlier work.

Where two headings read alike, the source gives them in different places. Where a SMILES comes first, the peptide text is derived from it. Where no end group is shown, it is not given here. [ ]: non-standard residue; d: D form. pY = N[C@@H](Cc1ccc(OP(=O)(O)O)cc1)C(=O)O

T1 sequence (P12931 151-248 limits assumed): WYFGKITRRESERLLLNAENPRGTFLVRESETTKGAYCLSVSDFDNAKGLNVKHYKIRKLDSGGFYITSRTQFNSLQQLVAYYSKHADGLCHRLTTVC

At Src SH2 domain, `N[C@@H](Cc1ccc(OP(=O)(O)O)cc1)C(=O)N[C@@H](CCC(=O)O)C(=O)N[C@@H](CCC(=O)O)C(=O)NCC(=O)O` [pYEEG] (H-[pY]EEG-OH) gave a 50% inhibitory concentration (IC50) of 5700 ± 2100 nM. In turn, `CC[C@H](C)[C@H](NC(=O)[C@H](CC(N)=O)NC(=O)[C@H](CCC(=O)O)NC(=O)[C@@H](N)Cc1ccc(OP(=O)(O)O)cc1)C(=O)O` [pYENI, pTyr-Glu-Asn-Ile] (H-[pY]ENI-OH) returned a half-maximal inhibitory concentration (IC50) at Src SH2 domain of 1000 ± 100 nM.

As to `CC(C)[C@H](NC(=O)[C@H](CC(N)=O)NC(=O)[C@H](CCC(=O)O)NC(=O)[C@@H](N)Cc1ccc(OP(=O)(O)O)cc1)C(=O)O` [pYENV] (H-[pY]ENV-OH), on Src SH2 domain, the IC50 came out at 2100 ± 700 nM.

On to `CC(C)[C@H](NC(=O)[C@H](CC(N)=O)NC(=O)[C@@H](NC(=O)[C@@H](N)Cc1ccc(OP(=O)(O)O)cc1)C(C)C)C(=O)O` [pYVNV, pTyr-Val-Asn-Val-Ala], for which, at Src SH2 domain (estimated binding free energy from FP IC50), the “est. ΔG” value is -6.96 kcal/mol. For pTyr-Glu-Glu-Ile-Pro ([pY]EEIP), the Kd on Src SH2 (complex of crystal structure 1SPS, read-out: affinity of the high-affinity complex with Src SH2) was 80 to 200 nM. For “pTyr-Val-Pro-Met-Leu ([pY]VPML) [phosphopeptide of the less specific Src SH2 crystal structure 1SHA]”, the Kd on Src SH2 (complex of crystal structure 1SHA, read-out: Kd) is 5500 nM.

One may read the IC50 as the point on the concentration scale where inhibition reaches its midpoint.
